pIC50: −log10 of the molar value. In brackets after ≈: the same amount, converted by molar mass.
Key:
[1] = test system: A549; assay: Antiproliferative activity against human A549 cells assessed as cell growth inhibition incubated for 48 hrs by MTT assay; assay type: functional, cell-based; settings: A549, 48 h
[2] = test system: HCT-116; assay: Antiproliferative activity against human HCT-116 cells assessed as cell growth inhibition incubated for 48 hrs by MTT assay; assay type: functional, cell-based; settings: HCT-116, 48 h
[3] = test system: MCF7; assay: Antiproliferative activity against human MCF7 cells assessed as cell growth inhibition incubated for 48 hrs by MTT assay; assay type: functional, cell-based; settings: MCF7, 48 h
[4] = test system: SK-MEL-28; assay: Antiproliferative activity against human SK-MEL-28 cells assessed as cell growth inhibition incubated for 48 hrs by MTT assay; assay type: functional, cell-based; settings: SK-MEL-28, 48 h
[5] = Cytotoxicity against human HaCaT cells assessed as cell growth inhibition incubated for 48 hrs by MTT assay; assay type: toxicity, cell-based
[6] = test system: A549; assay: Antiproliferative activity against human A549 cells assessed as cell growth inhibition at 20 uM incubated for 48 hrs by MTT assay; assay type: functional
[7] = test system: HCT-116; assay: Antiproliferative activity against human HCT-116 cells assessed as cell growth inhibition at 20 uM incubated for 48 hrs by MTT assay; assay type: functional
[8] = test system: MCF7; assay: Antiproliferative activity against human MCF7 cells assessed as cell growth inhibition at 20 uM incubated for 48 hrs by MTT assay; assay type: functional
[9] = test system: SK-MEL-28; assay: Antiproliferative activity against human SK-MEL-28 cells assessed as cell growth inhibition at 20 uM incubated for 48 hrs by MTT assay; assay type: functional
[10] = test system: A2780S; assay: Antiproliferative activity against human A2780S cells assessed as reduction in cell viability incubated for 24 hrs by MTT assay; assay type: functional, cell-based
[11] = test system: SK-OV-3; assay: Antiproliferative activity against human SK-OV-3 cells assessed as reduction in cell viability incubated for 24 hrs by MTT assay; assay type: functional, cell-based; settings: SK-OV-3, 24 h
[12] = Solubility in human plasma at pH 7.2 to 7.8 incubated for 4 hrs by HPLC analysis; assay type: ADME, cell-free
[13] = test system: MDA-MB-231; assay: Antiproliferative activity against human MDA-MB-231 cells assessed as reduction in cell viability incubated for 24 hrs by MTT assay; assay type: functional, cell-based; settings: MDA-MB-231, 24 h
[14] = test system: MCF7; assay: Antiproliferative activity against human MCF7 cells assessed as reduction in cell viability incubated for 24 hrs by MTT assay; assay type: functional, cell-based; settings: MCF7, 24 h
[15] = test system: A549; assay: Antiproliferative activity against human A549 cells assessed as reduction in cell viability; assay type: functional, cell-based
[16] = Cytotoxicity against human L02 cells assessed as reduction in cell viability; assay type: toxicity, cell-based
[17] = Selectivity index, ratio of IC50 for cytotoxicity against human L02 cells to IC50 for antiproliferative activity against human A549 cells; assay type: toxicity, cell-based; settings: L02 cells and A549 cells, read-out: Ratio IC50
[18] = biological target: T1, Epidermal growth factor receptor (Homo sapiens, UniProt P00533); assay: Inhibition of EGFR (unknown origin)
T1 sequence (P00533 whole entry): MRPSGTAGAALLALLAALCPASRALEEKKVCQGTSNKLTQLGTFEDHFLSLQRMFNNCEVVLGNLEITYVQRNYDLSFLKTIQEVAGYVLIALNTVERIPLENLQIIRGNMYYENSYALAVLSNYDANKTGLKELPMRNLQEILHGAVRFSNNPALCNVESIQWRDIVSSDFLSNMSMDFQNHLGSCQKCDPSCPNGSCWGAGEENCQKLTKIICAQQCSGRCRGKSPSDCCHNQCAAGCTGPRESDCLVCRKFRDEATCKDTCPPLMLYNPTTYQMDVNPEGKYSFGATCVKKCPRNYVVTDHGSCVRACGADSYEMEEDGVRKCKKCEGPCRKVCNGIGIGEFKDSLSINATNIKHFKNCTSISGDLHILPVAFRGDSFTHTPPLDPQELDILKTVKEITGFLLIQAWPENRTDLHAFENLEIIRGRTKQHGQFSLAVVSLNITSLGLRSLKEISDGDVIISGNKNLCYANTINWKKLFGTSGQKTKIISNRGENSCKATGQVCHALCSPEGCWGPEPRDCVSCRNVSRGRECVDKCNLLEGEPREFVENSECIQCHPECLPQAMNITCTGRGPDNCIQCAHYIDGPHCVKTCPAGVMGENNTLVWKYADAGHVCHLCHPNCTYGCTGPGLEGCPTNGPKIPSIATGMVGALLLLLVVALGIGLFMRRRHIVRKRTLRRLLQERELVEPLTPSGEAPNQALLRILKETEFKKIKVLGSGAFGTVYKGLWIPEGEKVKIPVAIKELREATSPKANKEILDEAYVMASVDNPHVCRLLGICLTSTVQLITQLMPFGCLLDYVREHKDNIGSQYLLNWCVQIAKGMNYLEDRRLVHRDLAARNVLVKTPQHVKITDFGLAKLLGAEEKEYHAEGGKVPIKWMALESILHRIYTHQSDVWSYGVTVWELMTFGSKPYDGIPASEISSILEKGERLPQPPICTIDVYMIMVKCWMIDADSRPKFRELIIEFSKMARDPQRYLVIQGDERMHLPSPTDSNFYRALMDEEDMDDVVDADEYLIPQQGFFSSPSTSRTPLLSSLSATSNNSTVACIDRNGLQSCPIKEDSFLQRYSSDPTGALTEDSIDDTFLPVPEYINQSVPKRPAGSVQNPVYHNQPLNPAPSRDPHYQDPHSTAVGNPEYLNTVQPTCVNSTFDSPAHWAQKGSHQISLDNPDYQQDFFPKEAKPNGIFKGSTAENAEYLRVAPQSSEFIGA

[19] = biological target: Epidermal growth factor receptor (Homo sapiens, UniProt P00533, L858R/T790M); assay: Inhibition of EGFR T790M/L858R mutant (unknown origin)
Sequence of Epidermal growth factor receptor (Homo sapiens, UniProt P00533, L858R/T790M) (P00533 25-1210 T790M/L858R limits assumed): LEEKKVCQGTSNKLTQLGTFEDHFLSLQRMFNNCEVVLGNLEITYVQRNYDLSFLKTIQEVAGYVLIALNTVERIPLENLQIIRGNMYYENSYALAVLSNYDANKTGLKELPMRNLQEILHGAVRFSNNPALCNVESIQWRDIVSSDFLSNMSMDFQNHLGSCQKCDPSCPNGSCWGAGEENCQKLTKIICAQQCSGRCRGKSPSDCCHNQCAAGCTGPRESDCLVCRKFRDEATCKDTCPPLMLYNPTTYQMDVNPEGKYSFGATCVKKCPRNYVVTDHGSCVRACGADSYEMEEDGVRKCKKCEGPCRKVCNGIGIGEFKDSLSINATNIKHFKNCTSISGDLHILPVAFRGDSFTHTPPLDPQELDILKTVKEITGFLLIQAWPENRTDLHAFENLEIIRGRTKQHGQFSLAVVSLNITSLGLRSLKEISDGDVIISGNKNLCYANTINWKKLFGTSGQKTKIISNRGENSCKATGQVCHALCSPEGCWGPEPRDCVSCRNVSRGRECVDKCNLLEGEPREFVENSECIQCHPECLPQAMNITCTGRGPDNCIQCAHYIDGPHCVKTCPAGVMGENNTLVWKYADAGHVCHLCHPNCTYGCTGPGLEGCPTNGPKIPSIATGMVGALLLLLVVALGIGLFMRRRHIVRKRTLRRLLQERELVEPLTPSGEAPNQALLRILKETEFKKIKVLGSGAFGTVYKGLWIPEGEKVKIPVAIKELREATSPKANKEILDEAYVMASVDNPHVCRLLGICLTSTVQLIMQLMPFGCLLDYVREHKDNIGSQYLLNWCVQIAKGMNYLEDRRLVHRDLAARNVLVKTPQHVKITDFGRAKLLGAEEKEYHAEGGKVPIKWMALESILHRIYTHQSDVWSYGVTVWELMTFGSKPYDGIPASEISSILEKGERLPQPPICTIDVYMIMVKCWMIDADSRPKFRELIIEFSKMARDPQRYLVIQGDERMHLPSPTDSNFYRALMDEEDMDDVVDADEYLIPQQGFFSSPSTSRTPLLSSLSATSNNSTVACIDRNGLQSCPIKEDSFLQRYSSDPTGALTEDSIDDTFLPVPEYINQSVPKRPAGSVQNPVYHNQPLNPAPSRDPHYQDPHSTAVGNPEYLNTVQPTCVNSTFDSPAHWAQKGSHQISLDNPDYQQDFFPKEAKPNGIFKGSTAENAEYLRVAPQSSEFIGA

[20] = biological target: T1, Epidermal growth factor receptor; assay: Inhibition of EGFR (unknown origin) using poly E4Y1 and ATP as substrate incubated for 60 mins by ADP-Glo kinase assay

| SMILES | pIC50 [1] | pIC50 [2] | pIC50 [3] | pIC50 [4] | inhibition at 20 µM [6] | inhibition at 20 µM [7] | inhibition at 20 µM [8] | inhibition at 20 µM [9] | also measured |
| --- | --- | --- | --- | --- | --- | --- | --- | --- | --- |
| Cc1sc([Se]c2sc(C)c(-c3cccc(F)c3)c2C(=O)NCC(=O)N2CCCC2)c(C(=O)NCC(=O)N2CCCC2)c1-c1cccc(F)c1 | 4.76 | 5.04 | 4.87 | 4.94 | 79% | 73% | 88% | 70% | IC50 at 48 h [5]: 24.7 µM |
| Cc1sc([Se]c2sc(C)c(-c3cccc(Cl)c3)c2C(=O)NC(C(=O)N2CCCC2)C(C)C)c(C(=O)NC(C(=O)N2CCCC2)C(C)C)c1-c1cccc(Cl)c1 (stereo not drawn) |  |  |  |  | 36% | 47% | 64% | < 10% |  |
| O=c1[nH]cc(F)c(=O)[nH]1 [FLUOROURACIL] | 4.73 | 4.78 | 4.82 | 4.99 |  |  |  |  |  |
| COc1ccc(/C=C/C(=O)c2ccc(OC)c3c2OC(C)(C)C=C3)cc1O |  |  |  |  |  |  |  |  | pIC50 [10]: 6.38; pIC50 [11]: 6.38; solubility at 4 h [12]: 146 µg/mL (≈ 0.398 mM); pIC50 [13]: 6.38; pIC50 [14]: 6.38 |
| COc1ccc(/C=C/C(=O)c2ccc(OC)c3c2OC(C)(C)C=C3)cc1OC(=O)CNC(=O)OC(C)(C)C |  |  |  |  |  |  |  |  | pIC50 [10]: 6.92; pIC50 [11]: 6.92; solubility at 4 h [12]: 2980 µg/mL (≈ 5.69 mM); pIC50 [13]: 6.92; pIC50 [14]: 6.92 |
| Cc1sc([Se]c2sc(C)c(-c3cccc(F)c3)c2C(=O)NC(CC(C)C)C(=O)N2CCCC2)c(C(=O)NC(CC(C)C)C(=O)N2CCCC2)c1-c1cccc(F)c1 (stereo not drawn) |  |  |  |  | 52% | 57% | 70% | 18% |  |
| Cc1sc(Br)c(C(=O)NC(CO)C(=O)N2CCCC2)c1-c1cccc(Br)c1 (stereo not drawn) | 4.54 | 4.61 | 4.49 | 4.26 |  |  |  |  |  |
| Cc1sc(Br)c(C(=O)NC(CO)C(=O)N2CCCC2)c1-c1cccc(Cl)c1 (stereo not drawn) | 4.47 | 4.46 | 4.43 | 4.24 |  |  |  |  |  |
| COc1cc(C2c3cc4c(cc3C(OC3OC5COC(C)OC5C(O)C3O)C3COC(=O)C23)OCO4)cc(OC)c1O (stereo not drawn) |  |  |  |  |  |  |  |  | pIC50 [15]: 5.03; pIC50 [16]: 5.46; selectivity ratio [17]: 0.5 |
| Cc1sc(Br)c(C(=O)NC(C)C(=O)N2CCCC2)c1-c1cccc(F)c1 (stereo not drawn) | 4.35 | 4.51 | 4.32 | 4.31 |  |  |  |  |  |
| Cc1sc([Se]c2sc(C)c(-c3cccc(Cl)c3)c2C(=O)NC(Cc2ccccc2)C(=O)N2CCCC2)c(C(=O)NC(Cc2ccccc2)C(=O)N2CCCC2)c1-c1cccc(Cl)c1 (stereo not drawn) |  |  |  |  | 23% | 15% | 13% | 22% |  |
| Cc1sc([Se]c2sc(C)c(-c3cccc(Br)c3)c2C(=O)NC(Cc2ccccc2)C(=O)N2CCCC2)c(C(=O)NC(Cc2ccccc2)C(=O)N2CCCC2)c1-c1cccc(Br)c1 (stereo not drawn) |  |  |  |  | 14% | 9% | 26% | 18% |  |
| O=C(N/N=C/c1cnc(N2CCCC2)nc1)Nc1cc2c(Nc3ccc(F)c(Cl)c3)ncnc2cc1O[C@@H]1CCOC1 |  |  |  |  |  |  |  |  | pIC50 [18]: 8.20; pIC50 [19]: 8.08 |
| Cc1sc([Se]c2sc(C)c(-c3ccccc3)c2C(=O)NCC(=O)N2CCCC2)c(C(=O)NCC(=O)N2CCCC2)c1-c1ccccc1 |  |  |  |  | 45% | 25% | 89% | < 10% |  |
| Cc1sc(Br)c(C(=O)NC(C)C(=O)N2CCCC2)c1-c1ccccc1 (stereo not drawn) | 4.40 | 4.43 | 4.41 | 4.26 |  |  |  |  |  |
| Cc1sc([Se]c2sc(C)c(-c3cccc(Cl)c3)c2C(=O)NC(CO)C(=O)N2CCCC2)c(C(=O)NC(CO)C(=O)N2CCCC2)c1-c1cccc(Cl)c1 (stereo not drawn) | 4.80 | 5.17 | 4.95 | 4.86 | 86% | 75% | 64% | 66% | IC50 at 48 h [5]: 31.8 µM; pIC50 [20]: 6.14 |
| Cc1sc([Se]c2sc(C)c(-c3cccc(F)c3)c2C(=O)NC(C)C(=O)N2CCCC2)c(C(=O)NC(C)C(=O)N2CCCC2)c1-c1cccc(F)c1 (stereo not drawn) | 4.88 | 5.09 | 4.84 | 4.84 | 77% | 72% | 86% | 62% | IC50 at 48 h [5]: 29.3 µM; pIC50 [20]: 6.08 |
| Cc1sc([Se]c2sc(C)c(-c3cccc(Cl)c3)c2C(=O)NC(C)C(=O)N2CCCC2)c(C(=O)NC(C)C(=O)N2CCCC2)c1-c1cccc(Cl)c1 (stereo not drawn) |  |  |  |  | 38% | 70% | 90% | 13% |  |
| Cc1sc(Br)c(C(=O)NCC(=O)N2CCCC2)c1-c1cccc(F)c1 | 4.37 | 4.41 | 4.36 | 4.40 |  |  |  |  |  |
| Cc1sc([Se]c2sc(C)c(-c3cccc(Br)c3)c2C(=O)NC(C(=O)N2CCCC2)C(C)C)c(C(=O)NC(C(=O)N2CCCC2)C(C)C)c1-c1cccc(Br)c1 (stereo not drawn) |  |  |  |  | 44% | 51% | 72% | 34% |  |
| Cc1sc([Se]c2sc(C)c(-c3cccc(F)c3)c2C(=O)NC(C(=O)N2CCCC2)C(C)C)c(C(=O)NC(C(=O)N2CCCC2)C(C)C)c1-c1cccc(F)c1 (stereo not drawn) |  |  |  |  | 35% | 63% | 58% | 36% |  |
| c1ccc2c(c1)CCN2c1ncnc2cc3c(cc12)NCN3CCN1CCCC1 |  |  |  |  |  |  |  |  | pIC50 [18]: 7.49 |
| Cc1sc([Se]c2sc(C)c(-c3cccc(F)c3)c2C(=O)NC(Cc2ccccc2)C(=O)N2CCCC2)c(C(=O)NC(Cc2ccccc2)C(=O)N2CCCC2)c1-c1cccc(F)c1 (stereo not drawn) |  |  |  |  | 14% | 10% | 3% | < 10% |  |
| Cc1sc([Se]c2sc(C)c(-c3ccccc3)c2C(=O)NC(C)C(=O)N2CCCC2)c(C(=O)NC(C)C(=O)N2CCCC2)c1-c1ccccc1 (stereo not drawn) | 4.82 | 5.09 | 4.82 | 4.98 | 82% | 69% | 90% | 72% | IC50 at 48 h [5]: 26.4 µM |
| Cc1sc([Se]c2sc(C)c(-c3cccc(F)c3)c2C(=O)NC(CO)C(=O)N2CCCC2)c(C(=O)NC(CO)C(=O)N2CCCC2)c1-c1cccc(F)c1 (stereo not drawn) |  |  |  |  | 27% | 61% | 85% | 25% |  |
